How the values were obtained:
[1] = tested on: patients with septic shock and elevated adrenomedullin; experiment: AdrenOSS-2 phase II clinical trial, 14-day mortality; type: in vivo, human; details: vs placebo
Excerpt: AdrenOSS-2 is a double-blind, placebo-controlled, randomized, multicenter, proof of concept and dose-finding phase II clinical trial to investigate the safety, tolerability and efficacy of the N-terminal ADM antibody named Adrecizumab in patients with septic shock and elevated adrenomedullin (Geven et al. BMJ Open 2019;9:e024475). In total, 301 patients with septic shock and bio-ADM concentration > 70 pg/mL were randomized (2:1:1) to treatment with a single intravenous infusion over approximately 1 hour with either placebo (n=152), adrecizumab 2 ng/kg (n=72) or adrecizumab 4 ng/kg (n=77). All-cause mortality within 28 (90) days after inclusion was 25.8% (34.8%). Mean age was 68.4 years and 61% were male. For the per protocol analysis, n=294 patients remained eligible, and 14-day all-cause mortality rate was 18.5%.
In patients treated with Adrecizumab (both doses combined, per protocol population), a trend to lower short term mortality (14 days post admission) was observed compared to placebo (Hazard ratio (HR) 0.701 [0.408-1.21], p=0.100) (FIG. 8).

[2] = phase I study; cited from earlier work

Adrecizumab: humanized version of an N-terminal anti-ADM antibody; heavy chain SEQ ID NO: 32, light chain SEQ ID NO: 33
HR 14-day mortality ([1]; patients with DPP3 <40): 0.385
HR 14-day mortality ([1]; patients with DPP3 <50 (ng/mL on admission)): 0.426
HR 14-day mortality ([1]; patients with DPP3 <60): 0.449
HR 14-day mortality ([1]; patients with DPP3 <70): 0.546
HR 14-day mortality ([1]; patients with DPP3 >40): 1.35
HR 14-day mortality ([1]; patients with DPP3 >50 (ng/mL on admission)): 1.69
HR 14-day mortality ([1]; patients with DPP3 >60): 1.62
HR 14-day mortality ([1]; patients with DPP3 >70): 1.24
safety and tolerability, adverse events [2]: no serious adverse events were observed

Reference: patent US20230193348A1, “DPP3 FOR THERAPY GUIDANCE, MONITORING AND STRATIFICATION OF NT-ADM ANTIBODIES IN PATIENTS WITH SHOCK” (4TEEN4 PHARMACEUTICALS GMBH, priority 2020, published 2023)
